This assay addresses S. pneumoniae Topoisomerase IV ATPase (ParE) (Streptococcus pneumoniae serotype 4, UniProt Q59961). Nature of the assay: S. pneumoniae Topoisomerase IV ATPase inhibition. The note with it: values marked * are an average of two or more data points, read-out: % Inh (13 μM) of S. pneumoniae Topoisomerase IV ATPase. The class given is biochemical. An outline of the steps:
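Phosphate release by ParE ATPase from S. pneumoniae read colorimetrically (malachite green, 650 nm), enzyme 1.25 nM, ATP 160 μM, salmon sperm DNA present, buffer 20 mM Tris pH 8.0 with 8 mM MgCl2. IC50 over 10 compound concentrations, EDTA (20 μM) and DMSO controls defining inhibition range.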
Chain of S. pneumoniae Topoisomerase IV ATPase (ParE) (Q59961 whole entry): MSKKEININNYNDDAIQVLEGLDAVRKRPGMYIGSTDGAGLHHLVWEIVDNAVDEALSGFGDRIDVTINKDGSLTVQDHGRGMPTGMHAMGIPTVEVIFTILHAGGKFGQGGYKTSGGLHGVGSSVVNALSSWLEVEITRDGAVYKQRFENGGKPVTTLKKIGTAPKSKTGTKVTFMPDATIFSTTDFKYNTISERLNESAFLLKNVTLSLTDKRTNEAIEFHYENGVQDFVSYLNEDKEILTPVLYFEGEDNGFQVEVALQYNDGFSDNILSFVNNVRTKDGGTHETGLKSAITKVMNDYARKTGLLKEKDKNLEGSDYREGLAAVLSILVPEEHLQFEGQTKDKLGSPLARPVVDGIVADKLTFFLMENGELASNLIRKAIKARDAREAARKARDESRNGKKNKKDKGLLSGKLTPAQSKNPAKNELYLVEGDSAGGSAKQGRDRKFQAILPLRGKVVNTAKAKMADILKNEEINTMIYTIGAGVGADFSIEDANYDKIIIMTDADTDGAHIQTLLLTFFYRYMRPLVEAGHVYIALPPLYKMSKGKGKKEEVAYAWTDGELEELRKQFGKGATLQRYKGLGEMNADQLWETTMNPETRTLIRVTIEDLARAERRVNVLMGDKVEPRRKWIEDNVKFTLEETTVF
As to `COc1ncc(-c2cnc(Nc3cc(C)cc(Cl)c3)nc2-n2nc(C(F)(F)F)cc2C)cc1C(=O)NS(C)(=O)=O` [Example 803, 5-{2-[(3-chloro-5-methylphenyl)amino]-4-[5-methyl-3-(trifluoromethyl)-1H-pyrazol-1-yl]pyrimidin-5-yl}-2-methoxy-N-(methylsulfonyl)pyridine-3-carboxamide], the inhibition at 13 µM is 100%.
As for `COc1cc(Nc2ncc(-c3cnc(OC)c(-c4n[nH]c(=O)o4)c3)c(-n3nc(C(F)(F)F)cc3C)n2)cc(OC)c1` [Example 805, 5-(5-{2-[(3,5-dimethoxyphenyl)amino]-4-[5-methyl-3-(trifluoromethyl)-1H-pyrazol-1-yl]pyrimidin-5-yl}-2-methoxypyridin-3-yl)-1,3,4-oxadiazol-2(3H)-one], the inhibition at 13 µM is 100%.
`COc1cc(Nc2ncc(-c3cnc(OC)c(-c4n[nH]c(=O)o4)c3)c(-n3ccc(C(F)(F)F)n3)n2)cc(OC)c1` [Example 807, 5-(5-{2-[(3,5-dimethoxyphenyl)amino]-4-[3-(trifluoromethyl)-1H-pyrazol-1-yl]pyrimidin-5-yl}-2-methoxypyridin-3-yl)-1,3,4-oxadiazol-2(3H)-one]: the inhibition at 13 µM was determined as 100%.
Consider `CNC(=O)c1cc(-c2cnc(Nc3cc(OC)cc(OC)c3)nc2-n2nc(C(F)(F)F)cc2C)cnc1OC` [Example 808, 5-{2-[(3,5-dimethoxyphenyl)amino]-4-[5-methyl-3-(trifluoromethyl)-1H-pyrazol-1-yl]pyrimidin-5-yl}-2-methoxy-N-methylpyridine-3-carboxamide], for which the inhibition at 13 µM was found to be 100%.
For `CNC(=O)c1cc(-c2cnc(Nc3cc(OC)cc(OC)c3)nc2-n2ccc(C(F)(F)F)n2)cnc1OC` [Example 809, 5-{2-[(3,5-dimethoxyphenyl)amino]-4-[3-(trifluoromethyl)-1H-pyrazol-1-yl]pyrimidin-5-yl}-2-methoxy-N-methylpyridine-3-carboxamide], the inhibition at 13 µM is 100%.
For the molecule `CONC(=O)c1cc(-c2cnc(Nc3cc(OC)cc(OC)c3)nc2-n2nc(C(F)(F)F)cc2C)cnc1OC` [Example 810, 5-{2-[(3,5-dimethoxyphenyl)amino]-4-[5-methyl-3-(trifluoromethyl)-1H-pyrazol-1-yl]pyrimidin-5-yl}-N,2-dimethoxypyridine-3-carboxamide], the inhibition at 13 µM was 100%.
For `CONC(=O)c1cc(-c2cnc(Nc3cc(OC)cc(OC)c3)nc2-n2ccc(C(F)(F)F)n2)cnc1OC` [Example 811, 5-{2-[(3,5-dimethoxyphenyl)amino]-4-[3-(trifluoromethyl)-1H-pyrazol-1-yl]pyrimidin-5-yl}-N,2-dimethoxypyridine-3-carboxamide], the inhibition at 13 µM was 100%.
Take `COc1cc(Nc2ncc(-c3cnc(OC)c(C(=O)NCCS(C)(=O)=O)c3)c(-n3nc(C(F)(F)F)cc3C)n2)cc(OC)c1` [Example 812, 5-{2-[(3,5-dimethoxyphenyl)amino]-4-[5-methyl-3-(trifluoromethyl)-1H-pyrazol-1-yl]pyrimidin-5-yl}-2-methoxy-N-[2-(methylsulfonyl)ethyl]pyridine-3-carboxamide]: the inhibition at 13 µM was determined as 100%.
With `COc1cc(Nc2ncc(-c3cnc(OC)c(C(=O)NCCS(C)(=O)=O)c3)c(-n3ccc(C(F)(F)F)n3)n2)cc(OC)c1` [Example 813, 5-{2-[(3,5-dimethoxyphenyl)amino]-4-[3-(trifluoromethyl)-1H-pyrazol-1-yl]pyrimidin-5-yl}-2-methoxy-N-[2-(methylsulfonyl)ethyl]pyridine-3-carboxamide], the inhibition at 13 µM was 100%.
`CCS(=O)(=O)NC(=O)c1cc(-c2cnc(Nc3cc(OC)cc(OC)c3)nc2-n2ccc(C(F)(F)F)n2)cnc1OC` [Example 814, 5-{2-[(3,5-dimethoxyphenyl)amino]-4-[3-(trifluoromethyl)-1H-pyrazol-1-yl]pyrimidin-5-yl}-N-(ethylsulfonyl)-2-methoxypyridine-3-carboxamide]: the inhibition at 13 µM was 100%.
Turning to `CCS(=O)(=O)NC(=O)c1cc(-c2cnc(Nc3cc(OC)cc(OC)c3)nc2-n2nc(C(F)(F)F)cc2C)cnc1OC` [Example 815, 5-{2-[(3,5-dimethoxyphenyl)amino]-4-[5-methyl-3-(trifluoromethyl)-1H-pyrazol-1-yl]pyrimidin-5-yl}-N-(ethylsulfonyl)-2-methoxypyridine-3-carboxamide], the inhibition at 13 µM was found to be 100%.
For the molecule `CCCS(=O)(=O)NC(=O)c1cc(-c2cnc(Nc3cc(OC)cc(OC)c3)nc2-n2ccc(C(F)(F)F)n2)cnc1OC` [Example 816, 5-{2-[(3,5-dimethoxyphenyl)amino]-4-[3-(trifluoromethyl)-1H-pyrazol-1-yl]pyrimidin-5-yl}-2-methoxy-N-(propylsulfonyl)pyridine-3-carboxamide], the inhibition at 13 µM turned out to be 100%.
With `CCCS(=O)(=O)NC(=O)c1cc(-c2cnc(Nc3cc(OC)cc(OC)c3)nc2-n2nc(C(F)(F)F)cc2C)cnc1OC` [Example 817, 5-{2-[(3,5-dimethoxyphenyl)amino]-4-[5-methyl-3-(trifluoromethyl)-1H-pyrazol-1-yl]pyrimidin-5-yl}-2-methoxy-N-(propylsulfonyl)pyridine-3-carboxamide], the inhibition at 13 µM came out at 100%.
Turning to `COc1cc(Nc2ncc(-c3cnc(OC)c(C(=O)NS(=O)(=O)C(C)C)c3)c(-n3ccc(C(F)(F)F)n3)n2)cc(OC)c1` [Example 818, 5-{2-[(3,5-dimethoxyphenyl)amino]-4-[3-(trifluoromethyl)-1H-pyrazol-1-yl]pyrimidin-5-yl}-2-methoxy-N-(propan-2-ylsulfonyl)pyridine-3-carboxamide], the inhibition at 13 µM came out at 100%.
Turning to `COc1cc(Nc2ncc(-c3cnc(OC)c(C(=O)NS(=O)(=O)C(C)C)c3)c(-n3nc(C(F)(F)F)cc3C)n2)cc(OC)c1` [Example 819, 5-{2-[(3,5-dimethoxyphenyl)amino]-4-[5-methyl-3-(trifluoromethyl)-1H-pyrazol-1-yl]pyrimidin-5-yl}-2-methoxy-N-(propan-2-ylsulfonyl)pyridine-3-carboxamide], the inhibition at 13 µM was 100%.
Turning to `COc1cc(Nc2ncc(-c3cnc(OC)c(C(=O)NS(=O)(=O)CCCN4CCOCC4)c3)c(-n3ccc(C(F)(F)F)n3)n2)cc(OC)c1` [Example 820, 5-{2-[(3,5-dimethoxyphenyl)amino]-4-[3-(trifluoromethyl)-1H-pyrazol-1-yl]pyrimidin-5-yl}-2-methoxy-N-{[3-(morpholin-4-yl)propyl]sulfonyl}pyridine-3-carboxamide], the inhibition at 13 µM is 100%.
For `COc1cc(Nc2ncc(-c3cnc(OC)c(C(=O)NS(=O)(=O)CCCN4CCOCC4)c3)c(-n3nc(C(F)(F)F)cc3C)n2)cc(OC)c1` [Example 821, 5-{2-[(3,5-dimethoxyphenyl)amino]-4-[5-methyl-3-(trifluoromethyl)-1H-pyrazol-1-yl]pyrimidin-5-yl}-2-methoxy-N-{[3-(morpholin-4-yl)propyl]sulfonyl}pyridine-3-carboxamide], the inhibition at 13 µM turned out to be 100%.
For the molecule `CCS(=O)(=O)NC(=O)c1cc(-c2cnc(Nc3cc(C)cc(C)c3)nc2-n2ccc(C(F)(F)F)n2)cnc1OC` [Example 822, 5-{2-[(3,5-dimethylphenyl)amino]-4-[3-(trifluoromethyl)-1H-pyrazol-1-yl]pyrimidin-5-yl}-N-(ethylsulfonyl)-2-methoxypyridine-3-carboxamide], the inhibition at 13 µM was determined as 100%.
As to `CCS(=O)(=O)NC(=O)c1cc(-c2cnc(Nc3cc(C)cc(C)c3)nc2-n2nc(C(F)(F)F)cc2C)cnc1OC` [Example 823], the inhibition at 13 µM came out at 100%.
Take `CCCS(=O)(=O)NC(=O)c1cc(-c2cnc(Nc3cc(C)cc(C)c3)nc2-n2ccc(C(F)(F)F)n2)cnc1OC` [Example 824, 5-{2-[(3,5-dimethylphenyl)amino]-4-[3-(trifluoromethyl)-1H-pyrazol-1-yl]pyrimidin-5-yl}-2-methoxy-N-(propylsulfonyl)pyridine-3-carboxamide]: the inhibition at 13 µM was found to be 100%.
Consider `CCCS(=O)(=O)NC(=O)c1cc(-c2cnc(Nc3cc(C)cc(C)c3)nc2-n2nc(C(F)(F)F)cc2C)cnc1OC` [Example 825, 5-{2-[(3,5-dimethylphenyl)amino]-4-[5-methyl-3-(trifluoromethyl)-1H-pyrazol-1-yl]pyrimidin-5-yl}-2-methoxy-N-(propylsulfonyl)pyridine-3-carboxamide], for which the inhibition at 13 µM was 100%.
As to `COc1ncc(-c2cnc(Nc3cc(C)cc(C)c3)nc2-n2ccc(C(F)(F)F)n2)cc1C(=O)NS(=O)(=O)C(C)C` [Example 826, 5-{2-[(3,5-dimethylphenyl)amino]-4-[3-(trifluoromethyl)-1H-pyrazol-1-yl]pyrimidin-5-yl}-2-methoxy-N-(propan-2-ylsulfonyl)pyridine-3-carboxamide], the inhibition at 13 µM was 96%.
Consider `COc1ncc(-c2cnc(Nc3cc(C)cc(C)c3)nc2-n2nc(C(F)(F)F)cc2C)cc1C(=O)NS(=O)(=O)C(C)C` [Example 827, 5-{2-[(3,5-dimethylphenyl)amino]-4-[5-methyl-3-(trifluoromethyl)-1H-pyrazol-1-yl]pyrimidin-5-yl}-2-methoxy-N-(propan-2-ylsulfonyl)pyridine-3-carboxamide], for which the inhibition at 13 µM stood at 100%.
Take `COc1ncc(-c2cnc(Nc3cc(C)cc(C)c3)nc2-n2ccc(C(F)(F)F)n2)cc1C(=O)NS(=O)(=O)CCCN1CCOCC1` [Example 828, 5-{2-[(3,5-dimethylphenyl)amino]-4-[3-(trifluoromethyl)-1H-pyrazol-1-yl]pyrimidin-5-yl}-2-methoxy-N-{[3-(morpholin-4-yl)propyl]sulfonyl}pyridine-3-carboxamide]: the inhibition at 13 µM was determined as 100%.
For `COc1ncc(-c2cnc(Nc3cc(C)cc(C)c3)nc2-n2nc(C(F)(F)F)cc2C)cc1C(=O)NS(=O)(=O)CCCN1CCOCC1` [Example 829, 5-{2-[(3,5-dimethylphenyl)amino]-4-[5-methyl-3-(trifluoromethyl)-1H-pyrazol-1-yl]pyrimidin-5-yl}-2-methoxy-N-{[3-(morpholin-4-yl)propyl]sulfonyl}pyridine-3-carboxamide] the value was 100%.
